Experimental data: patent publication US12180193B2, “Accelerating fibrosarcoma protein degrading compounds and associated methods of use” (Arvinas Operations, Inc., priority 2020, dated 2024)

What was measured:
[1] = target: T1, BRAF G466V (Homo sapiens, UniProt P15056, G466V); assay: Cellular assay of target protein degradation, T-Rex 293 cells stably transfected with HA-BRAF G466V (HA immunofluorescence, high content imaging); type: cell-based; details: T-Rex 293 HA-BRAF G466V; for DC50: half maximal degradation, read-out: BRaf G466V DC50; for Dmax: maximum degradation observed
T1 construct: expressed in transfected cells
T1 sequence (P15056 whole entry G466V): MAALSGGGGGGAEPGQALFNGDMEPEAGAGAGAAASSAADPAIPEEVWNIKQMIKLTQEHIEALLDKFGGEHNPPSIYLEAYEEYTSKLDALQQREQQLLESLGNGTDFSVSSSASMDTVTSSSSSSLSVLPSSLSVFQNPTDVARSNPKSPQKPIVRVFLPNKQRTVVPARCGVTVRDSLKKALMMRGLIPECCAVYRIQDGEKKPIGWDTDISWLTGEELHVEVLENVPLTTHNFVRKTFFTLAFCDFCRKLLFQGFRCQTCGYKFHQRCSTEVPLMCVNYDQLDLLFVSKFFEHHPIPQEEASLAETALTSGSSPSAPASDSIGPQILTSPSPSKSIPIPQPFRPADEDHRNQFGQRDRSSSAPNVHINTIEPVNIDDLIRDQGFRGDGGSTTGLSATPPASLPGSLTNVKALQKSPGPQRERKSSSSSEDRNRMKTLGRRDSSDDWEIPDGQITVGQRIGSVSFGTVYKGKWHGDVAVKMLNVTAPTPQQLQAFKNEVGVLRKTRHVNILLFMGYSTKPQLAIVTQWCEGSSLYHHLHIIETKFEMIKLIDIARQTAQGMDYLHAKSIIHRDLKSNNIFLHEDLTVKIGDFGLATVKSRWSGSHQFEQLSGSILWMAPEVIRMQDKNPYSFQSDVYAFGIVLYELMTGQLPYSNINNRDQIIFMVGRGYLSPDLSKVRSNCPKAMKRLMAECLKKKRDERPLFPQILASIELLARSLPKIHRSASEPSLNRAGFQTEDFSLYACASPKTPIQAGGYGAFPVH
Method: Protocol for a cellular assay of target protein degradation (T-Rex 293 cells). T-Rex 293 cells were purchased from Invitrogen (#R71007), and stably transfected with a pcDNA4/TO_HA-BRAF G466V construct, using 400 ug Zeocin for selection. G466V cells are plated in Dulbecco's Modified Eagle Medium (DMEM; Gibco #11965118) containing 10% fetal bovine serum (FBS; Gibco #16000044) and 0.75 ng/mL doxycycline (Selleckchem #4163) at a density of 5,000 cells/well in 50 μl on poly-D-lysine (PDL) coated, black clear bottom 96-well plates (Corning #354640) and incubated for 24 hours at 37° C. with 5% CO2. The following day 50 ul of tested compound was added at 2x concentration in DMEM with a final concentration ranging from 30 nM to 3 pM in 0.1% dimethylsulfoxide (DMSO), and incubated for 24 hours at 37° C. with 5% CO2. At the end of the experimental treatment, the media was flicked off and cells washed once with phosphate-buffered saline (PBS)++ (PBS with CaCl and MgCl) and gently replacing with 200 μl PBS++ per well. The PBS++ was removed and 50 uL 4% paraformaldehyde (PFA; EMS #15710) in PBS++ was added, and incubate at room temperature for 15 minutes. Cells were washed once with PBS++ and 50 uL 0.1% Triton X-100 (Fisher #BP151-500) in PBS++ was added. Plate was incubate for 5 minutes at room temperature. Cells were was once with PBS++. Cells were blocked with 100 uL Licor blocking buffer (Licor #927-50000) for 1 hour at room temperature. Next, 50 uL of HA antibody (CST #3724) at 1:1000 in Licor blocking buffer was added, and the plate incubate overnight at 4° C. The plates were parafilmed to prevent evaporation. Plate was washed three times with 200 uL PBS++. Fifty microliters of HCS secondary antibody solution [1:1000 Hoechst (Invitrogen #H3570), 1:1000 phalloidin (Invitrogen #A22287) and 1:5000 Alexa fluor (Invitrogen #A11008)] was added and incubated for 1 hour. Plate was wash three times with 200 uL PBS++, and imaged on a high content reader (ImageXpress Micro XLS, Molecular Devices).
(§1) The concentration of exemplary compound that leads to half maximal degradation (DC50) as well as the maximum degradation observed (Dmax, conventionally expressed as a percentage of control), which are below in Table 2 for the exemplary compounds of Table 1.

[2] = target: T2, BRAF V600E (Homo sapiens, UniProt P15056, V600E); assay: Cellular assay of target protein degradation, T-Rex 293 cells stably transfected with HA-BRAF_V600E (HA immunofluorescence, high content imaging); type: cell-based; details: T-Rex 293 HA-BRAF V600E; for DC50: half maximal degradation, read-out: BRaf V600E DC50; for Dmax: maximum degradation observed
T2 construct: expressed in transfected cells
T2 sequence (P15056 whole entry V600E): as the sequence (P15056 whole entry G466V) above, with V466G, V600E counted along it
Method: Protocol for a cellular assay of target protein degradation (T-Rex 293 cells). T-Rex 293 cells were purchased from Invitrogen (#R71007), and stably transfected with a pcDNA4/TO_HA-BRAF_V600E construct, using 400 ug Zeocin for selection. V600e cells are plated in Dulbecco's Modified Eagle Medium (DMEM; Gibco #11965118) containing 10% fetal bovine serum (FBS; Gibco #16000044) and 1 ng/mL doxycycline (Selleckchem #4163) at a density of 5,000 cells/well in 50 μl on poly-D-lysine (PDL) coated, black clear bottom 96-well plates (Corning #354640) and incubated for 24 hours at 37° C. with 5% C02. The following day 50 ul of tested compound was added at 2x concentration in DMEM with a final concentration ranging from 1 μM to 0.1 nM in 0.1% dimethylsulfoxide (DMSO), and incubated for 24 hours at 37° C. with 5% CO2. At the end of the experimental treatment, the media was flicked off and cells washed once with phosphate-buffered saline (PBS)++ (PBS with CaCl and MgCl) and gently replacing with 200 μl PBS++ per well. The PBS++ was removed and 50 uL 4% paraformaldehyde (PFA; EMS #15710) in PBS++ was added, and incubate at room temperature for 15 minutes. Cells were washed once with PBS++ and 50 uL 0.1% Triton X-100 (Fisher #BP151-500) in PBS++ was added. Plate was incubate for 5 minutes at room temperature. Cells were was once with PBS++. Cells were blocked with 100 uL Licor blocking buffer (Licor #927-50000) for 1 hour at room temperature. Next, 50 uL of HA antibody (CST #3724) at 1:1000 in Licor blocking buffer was added, and the plate incubate overnight at 4° C. The plates were parafilmed to prevent evaporation. Plate was washed three times with 200 uL PBS++. Fifty microliters of HCS secondary antibody solution [1:1000 Hoechst (Invitrogen #H3570), 1:1000 phalloidin (Invitrogen #A22287) and 1:5000 Alexa fluor (Invitrogen #A11008)] was added and incubated for 1 hour. Plate was wash three times with 200 uL PBS++, and imaged on a high content reader (ImageXpress Micro XLS, Molecular Devices).
as §1

DC50 [1] | Dmax [1] | DC50 [2] | Dmax [2] | SMILES
0.01 to 0.03 µM | 35 to 70% | 0.005 to 0.05 µM | 35 to 70% | O=C1CCC(N2Cc3cc(N4CC5(CC(CN6CCc7cc(-c8cnc9[nH]cc(C(=O)c%10c(F)ccc(NS(=O)(=O)N%11CC[C@@H](F)C%11)c%10F)c9c8)ccc7C6)C5)C4)ccc3C2=O)C(=O)N1 (stereo partly drawn) [Compound 8, (3R)-N-(3-{5-[2-({2-[2-(2,6-dioxopiperidin-3-yl)-1-oxo-2,3-dihydro-1H-isoindol-5-yl]-2-azaspiro[3.3]heptan-6-yl}methyl)-1,2,3,4-tetrahydroisoquinolin-6-yl]-1H-pyrrolo[2,3-b]pyridine-3-carbonyl}-2,4-difluorophenyl)-3-fluoropyrrolidine-1-sulfonamide]
< 0.001 µM | 35 to 70% | 0.005 to 0.05 µM | 35 to 70% | O=C1CCC(N2Cc3cc(N4CCC5(CCN(CCc6ccc(-c7cnc8[nH]cc(C(=O)c9c(F)ccc(NS(=O)(=O)N%10CC[C@@H](F)C%10)c9F)c8c7)cc6)CC5)C4)ccc3C2=O)C(=O)N1 (stereo partly drawn) [Compound 10, (3R)-N-(3-{5-[4-(2-{2-[2-(2,6-dioxopiperidin-3-yl)-1-oxo-2,3-dihydro-1H-isoindol-5-yl]-2,8-diazaspiro[4.5]decan-8-yl}ethyl)phenyl]-1H-pyrrolo[2,3-b]pyridine-3-carbonyl}-2,4-difluorophenyl)-3-fluoropyrrolidine-1-sulfonamide]
< 0.001 µM | 35 to 70% | 0.005 to 0.05 µM | 35 to 70% | O=C1CCC(N2Cc3cc(N4CCC(CN5CCN(c6ccc(-c7cnc8[nH]cc(C(=O)c9c(F)ccc(NS(=O)(=O)N%10CC[C@@H](F)C%10)c9F)c8c7)cc6F)CC5)CC4)ccc3C2=O)C(=O)N1 (stereo partly drawn) [Compound 11, (3R)-N-[3-(5-{4-[4-({1-[2-(2,6-dioxopiperidin-3-yl)-1-oxo-2,3-dihydro-1H-isoindol-5-yl]piperidin-4-yl}methyl)piperazin-1-yl]-3-fluorophenyl}-1H-pyrrolo[2,3-b]pyridine-3-carbonyl)-2,4-difluorophenyl]-3-fluoropyrrolidine-1-sulfonamide]
0.001 to 0.01 µM | 35 to 70% | 0.005 to 0.05 µM | > 70% | COc1cc(N2CC3(C2)CN(CC2CCN(c4ccc(-c5cnc6[nH]cc(C(=O)c7c(F)ccc(NS(=O)(=O)N8CC[C@@H](F)C8)c7F)c6c5)cc4)CC2)[C@H]3C)cc2c1C(=O)N(C1CCC(=O)NC1=O)C2 (stereo partly drawn) [Compound 12, (3R)-N-(3-{5-[4-(4-{[(1S)-6-[2-(2,6-dioxopiperidin-3-yl)-7-methoxy-1-oxo-2,3-dihydro-1H-isoindol-5-yl]-1-methyl-2,6-diazaspiro[3.3]heptan-2-yl]methyl}piperidin-1-yl)phenyl]-1H-pyrrolo[2,3-b]pyridine-3-carbonyl}-2,4-difluorophenyl)-3-fluoropyrrolidine-1-sulfonamide]
0.01 to 0.03 µM | 35 to 70% | > 0.5 µM | > 70% | O=C1CCC(N2Cc3cc(O[C@H]4C[C@@]5(COCCN5CC5CCN(c6ccc(-c7cnc8[nH]cc(C(=O)c9c(F)ccc(NS(=O)(=O)N%10CC[C@@H](F)C%10)c9F)c8c7)cc6)CC5)C4)ccc3C2=O)C(=O)N1 (stereo partly drawn) [Compound 13, (3R)-N-(2,4-difluoro-3-{5-[4-(4-{[(2r,4r)-2-{[2-(2,6-dioxopiperidin-3-yl)-1-oxo-2,3-dihydro-1H-isoindol-5-yl]oxy}-8-oxa-5-azaspiro[3.5]nonan-5-yl]methyl}piperidin-1-yl)phenyl]-1H-pyrrolo[2,3-b]pyridin-3-carbonyl}phenyl)-3-fluoropyrrolidine-1-sulfonamide]
– | < 35% | > 0.5 µM | 35 to 70% | O=C1CCC(N2Cc3cc(O[C@H]4C[C@]5(COCCN5CC5CCN(c6ccc(-c7cnc8[nH]cc(C(=O)c9c(F)ccc(NS(=O)(=O)N%10CC[C@@H](F)C%10)c9F)c8c7)cc6)CC5)C4)ccc3C2=O)C(=O)N1 (stereo partly drawn) [Compound 14, (3R)-N-(2,4-difluoro-3-{5-[4-(4-{[(2s,4s)-2-{[2-(2,6-dioxopiperidin-3-yl)-1-oxo-2,3-dihydro-1H-isoindol-5-yl]oxy}-8-oxa-5-azaspiro[3.5]nonan-5-yl]methyl}piperidin-1-yl)phenyl]-1H-pyrrolo[2,3-b]pyridine-3-carbonyl}phenyl)-3-fluoropyrrolidine-1-sulfonamide]
> 0.03 µM | – | > 0.5 µM | – | O=C1CCC(N2Cc3cc(N4CC[C@@H]4COc4ccc(-c5cnc6[nH]cc(C(=O)c7c(F)ccc(NS(=O)(=O)N8CC[C@@H](F)C8)c7F)c6c5)cc4)ccc3C2=O)C(=O)N1 (stereo partly drawn) [Compound 15, (3R)-N-{3-[5-(4-{[(2R)-1-[2-(2,6-dioxopiperidin-3-yl)-1-oxo-2,3-dihydro-1H-isoindol-5-yl]azetidin-2-yl]methoxy}phenyl)-1H-pyrrolo[2,3-b]pyridine-3-carbonyl]-2,4-difluorophenyl}-3-fluoropyrrolidine-1-sulfonamide]
0.001 to 0.01 µM | 35 to 70% | 0.05 to 0.5 µM | 35 to 70% | O=C1CCC(N2Cc3cc(N4CCC(N5C[C@@H]6C[C@H]5CN(c5ccc(-c7cnc8[nH]cc(C(=O)c9c(F)ccc(NS(=O)(=O)N%10CC[C@@H](F)C%10)c9F)c8c7)cc5)C6)CC4)ccc3C2=O)C(=O)N1 (stereo partly drawn) [Compound 16, (3R)-N-[3-(5-{4-[(1S,5S)-6-{1-[2-(2,6-dioxopiperidin-3-yl)-1-oxo-2,3-dihydro-1H-isoindol-5-yl]piperidin-4-yl}-3,6-diazabicyclo[3.2.1]octan-3-yl]phenyl}-1H-pyrrolo[2,3-b]pyridine-3-carbonyl)-2,4-difluorophenyl]-3-fluoropyrrolidine-1-sulfonamide]
> 0.03 µM | – | > 0.5 µM | – | O=C1CCC(N2Cc3cc(OC[C@@H]4CCN4c4ccc(-c5cnc6[nH]cc(C(=O)c7c(F)ccc(NS(=O)(=O)N8CC[C@@H](F)C8)c7F)c6c5)cc4)ccc3C2=O)C(=O)N1 (stereo partly drawn) [Compound 17, (3R)-N-[3-(5-{4-[(2S)-2-({[2-(2,6-dioxopiperidin-3-yl)-1-oxo-2,3-dihydro-1H-isoindol-5-yl]oxy}methyl)azetidin-1-yl]phenyl}-1H-pyrrolo[2,3-b]pyridine-3-carbonyl)-2,4-difluorophenyl]-3-fluoropyrrolidine-1-sulfonamide]
< 0.001 µM | 35 to 70% | 0.05 to 0.5 µM | > 70% | O=C1CCC(N2Cc3cc(N4CCC(CN5CCN(c6ncc(-c7cnc8[nH]cc(C(=O)c9c(F)ccc(NS(=O)(=O)N%10CC[C@@H](F)C%10)c9F)c8c7)cn6)CC5)CC4)ccc3C2=O)C(=O)N1 (stereo partly drawn) [Compound 18, (3R)-N-[3-(5-{2-[4-({1-[2-(2,6-dioxopiperidin-3-yl)-1-oxo-2,3-dihydro-1H-isoindol-5-yl]piperidin-4-yl}methyl)piperazin-1-yl]pyrimidin-5-yl}-1H-pyrrolo[2,3-b]pyridine-3-carbonyl)-2,4-difluorophenyl]-3-fluoropyrrolidine-1-sulfonamide]
